*1 amine or outer side, *2 acyl side, *3 side chain or, on linkers, in order; H or OH if unused. Where a SMILES comes first, the peptide text is derived from it. Bridges are numbered along the chain shown (N, C = ends). [ ]: non-standard residue; d: D form. The star is where a group is joined. hPhe(3-Cl-4-CF3) = N[C@@H](CCc1ccc(C(F)(F)F)c(Cl)c1)C(=O)O; X42 = Cc1ccc(C[C@@H](C(=O)[*:2])N(CCC(F)(F)F)[*:1])cc1; NPrPhe(4-CF3) = CCCN[C@@H](Cc1ccc(C(F)(F)F)cc1)C(=O)O; NMePhe(4-Me) = CN[C@@H](Cc1ccc(C)cc1)C(=O)O; NMeGly(cPent) = CN[C@H](C(=O)O)C1CCCC1; Pro(4,4-F2) = O=C(O)[C@@H]1CC(F)(F)CN1; Piperidide(4-Me) = CC1CCN(*)CC1; NMeD = CN[C@@H](CC(=O)O)C(=O)O; NMeL = CN[C@@H](CC(C)C)C(=O)O; NMeNva = CCC[C@H](NC)C(=O)O; Morpholide = C1CN(*)CCO1; NMeA = CN[C@@H](C)C(=O)O; Ac5c = NC1(C(=O)O)CCCC1; Aze = O=C(O)[C@@H]1CCN1; NEtG = CCNCC(=O)O; Sar = CNCC(=O)O
Experiments:
[1] = tested on: human lung cancer strain NCI-H441; format: cell-based
In short: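 Proliferation was scored by […] measured after the reagent was added to cultures kept at 37°C in 5% carbon dioxide.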

HRAS wild-type protein = HRAS wild-type protein (Homo sapiens, UniProt P01112); experiment: Binding to HRAS by surface plasmon resonance (SPR), KD and KD ratio to KRAS
In short: (§1)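 Compound binding is evaluated by SPR single-cycle kinetics, with concentrations added intermittently from low to high for 75 s each. Target surfaces carry GDP-loaded biotinylated Avi-RAS at about 100–300 RU, regenerated after each cycle; temperature 30°C. A 1:1 binding model gives KD.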

[2] = target: GDP-bound NRAS wild-type protein (Homo sapiens, UniProt P01111); experiment: Binding to NRAS by surface plasmon resonance (SPR), KD and KD ratio to KRAS
In short: as §1

[3] = ratio of KD for HRAS wild-type protein to KD for KRAS
[4] = ratio of KD for GDP-bound NRAS wild-type protein to KD for KRAS
[5] = ratio of the KD value with respect to HRAS wild-type protein to the KD value with respect to KRAS
[6] = ratio of the KD value with respect to GDP-bound NRAS wild-type protein to the KD value with respect to KRAS

GDP-bound NRAS wild-type protein, sequence (P01111 whole entry): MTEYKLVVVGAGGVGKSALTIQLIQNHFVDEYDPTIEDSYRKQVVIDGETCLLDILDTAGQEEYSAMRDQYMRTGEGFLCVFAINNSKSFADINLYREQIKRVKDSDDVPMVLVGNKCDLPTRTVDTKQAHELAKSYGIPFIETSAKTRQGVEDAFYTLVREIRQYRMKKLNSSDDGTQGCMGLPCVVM
HRAS wild-type protein, sequence (P01112 whole entry): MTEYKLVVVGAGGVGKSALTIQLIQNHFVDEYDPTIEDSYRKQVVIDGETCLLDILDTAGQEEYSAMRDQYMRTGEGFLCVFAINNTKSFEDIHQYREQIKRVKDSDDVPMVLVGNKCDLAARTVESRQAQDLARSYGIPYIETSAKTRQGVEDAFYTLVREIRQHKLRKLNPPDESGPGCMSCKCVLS

Structure (SMILES) | IC50 [1] | HRAS /KRAS (HRAS wild-type protein; [3]) | NRAS /KRAS [2, 4] | HRAS /KRAS (HRAS wild-type protein; [5]) | NRAS /KRAS [2, 6]
CCO[C@@H]1C[C@H]2C(=O)NC3(CCC3)C(=O)N(C)[C@@H](C3CCCC3)C(=O)N(C)[C@H](C(=O)N3CCOCC3)CC(=O)N(C)[C@@H](CC)C(=O)N[C@@H]([C@@H](C)CC)C(=O)N3CC[C@H]3C(=O)N(C)[C@H]3CC(C)=CCN(C3=O)[C@@H](Cc3ccc(C(F)(F)F)cc3)C(=O)N(C)CC(=O)N[C@@H](CCc3cc(F)c(C(F)(F)F)c(F)c3)C(=O)N2C1 [PP1042] | 349 nM | C (A compound having a KD ratio of 0.1 or more and less than 3 is denoted as C) | C (A compound having a KD ratio of 0.1 or more and less than 3 is denoted as C) |  | 
CCO[C@@H]1C[C@H]2C(=O)NC3(CCC3)C(=O)N(C)[C@@H](C3CCCC3)C(=O)N(C)[C@H](C(=O)N(C)C)CC(=O)N(C)[C@@H](C)C(=O)N[C@@H]([C@@H](C)CC)C(=O)N(C)CC(=O)N(C)[C@H]3CCCCCN(C3=O)[C@@H](Cc3ccc(C(F)(F)F)cc3)C(=O)N(C)CC(=O)N[C@@H](CCc3cc(F)c(C(F)(F)F)c(F)c3)C(=O)N2C1 [PP0476] | 4.9 nM |  |  | B (a compound having 3 or more and less than 10 is denoted as B) | B (a compound having 3 or more and less than 10 is denoted as B)
CCC[C@H]1C(=O)N[C@@H]([C@@H](C)CC)C(=O)N(C)CC(=O)N(C)CC(=O)N(CCC)[C@@H](Cc2ccc(C(F)(F)F)cc2)C(=O)N(C)CC(=O)N[C@@H](CCc2ccc(C(F)(F)F)c(Cl)c2)C(=O)N2CC(F)(F)C[C@H]2C(=O)NC2(CCCC2)C(=O)N(C)[C@@H](C2CCCC2)C(=O)N(C)[C@H](C(=O)N2CCOCC2)CC(=O)N1C [PP0201] ([NMeNva]I[Sar][Sar][NPrPhe(4-CF3)][Sar][hPhe(3-Cl-4-CF3)][Pro(4,4-F2)][Ac5c][NMeGly(cPent)][NMeD]-Morpholide; lactam N-11) | 3.4 nM | C (A compound having a KD ratio of 0.1 or more and less than 3 is denoted as C) | B (a compound having 3 or more and less than 10 is denoted as B) |  | 
CCO[C@@H]1C[C@H]2C(=O)NC3(CC(C)(C)C3)C(=O)N(C)[C@@H](C3CCCC3)C(=O)N(C)[C@H](C(=O)N3CCCC3)CC(=O)N(C)[C@@H](CC)C(=O)N[C@@H]([C@@H](C)CC)C(=O)N(C)CC(=O)N(C)[C@H]3C/C=C\CCN(C3=O)[C@@H](Cc3ccc(C(F)(F)F)cc3)C(=O)N(C)CC(=O)N[C@@H](CCc3cc(F)c(C(F)(F)F)c(F)c3)C(=O)N2C1 [PP1944] | 14.8 nM |  |  | A (a compound having 10 or more and less than 20 is denoted as A) | A (a compound having 10 or more and less than 20 is denoted as A)
CCC[C@H]1C(=O)N[C@@H]([C@@H](C)CC)C(=O)N(C)CC(=O)N(C)[C@H]2C/C=C\CCN(C2=O)[C@@H](Cc2ccc(C(F)(F)F)cc2)C(=O)N(C)CC(=O)N[C@@H](CCc2ccc(CC)c(Cl)c2)C(=O)N2C[C@H](OCC)C[C@H]2C(=O)NC2(CC(C)(C)C2)C(=O)N(C)[C@@H](C(CC)CC)C(=O)N(C)[C@H](C(=O)N(C)C)CC(=O)N1C [PP2777] | 111 nM | A (a compound having 10 or more and less than 20 is denoted as A) | AA (a compound having 20 or more is denoted as AA) |  | 
CCCN1C(=O)CN(C)C(=O)CN(C)C(=O)[C@H]([C@@H](C)CC)NC(=O)[C@H](CC(C)C)N(C)C(=O)C[C@@H](C(=O)N2CCC(C)CC2)N(C)C(=O)[C@H](C2CCCC2)N(C)C(=O)C2(CCCC2)NC(=O)[C@@H]2CCCN2C(=O)[C@H](CCc2ccc(C(F)(F)F)c(Cl)c2)NC(=O)CN(C)C(=O)[C@@H]1Cc1ccc(C(F)(F)F)cc1 [PP0176] ([NMeL]I[Sar][Sar][NPrPhe(4-CF3)][Sar][hPhe(3-Cl-4-CF3)]P[Ac5c][NMeGly(cPent)][NMeD]-{Piperidide(4-Me)}; lactam N-11) | 17.7 nM | C (A compound having a KD ratio of 0.1 or more and less than 3 is denoted as C) | B (a compound having 3 or more and less than 10 is denoted as B) |  | 
CCC(CC)[C@H]1C(=O)N(C)[C@H](C(=O)N(C)C)CC(=O)N(C)[C@H]2CCC/C=C/c3ccc(cc3)C[C@@H](C(=O)N(C)CC(=O)N[C@@H](CCc3ccc(Cl)c(Cl)c3)C(=O)N3CCC[C@H]3C(=O)NC3(CC(C)(C)C3)C(=O)N1C)N1CC/C=C\C[C@@H](C1=O)N(C)C(=O)CN(C)C(=O)[C@H]([C@@H](C)CC)NC2=O [PP2603] | 25.7 nM | A (a compound having 10 or more and less than 20 is denoted as A) | AA (a compound having 20 or more is denoted as AA) |  | 
CC[C@H](C)[C@@H]1NC(=O)[C@H](CC(C)C)N(C)C(=O)C[C@@H](C(=O)N2CCOCC2)N(C)C(=O)[C@H](C2CCCC2)N(C)C(=O)C2(CCCC2)NC(=O)[C@@H]2CCCN2C(=O)[C@H](CCc2ccc(C(F)(F)F)c(Cl)c2)NC(=O)CN(CC)C(=O)[C@H](Cc2ccc(C)cc2)N(C)C(=O)CN(C)C(=O)CN(C)C1=O [PP0025] ([NMeL]I[Sar][Sar][NMePhe(4-Me)][NEtG][hPhe(3-Cl-4-CF3)]P[Ac5c][NMeGly(cPent)][NMeD]-Morpholide; lactam N-11) | 27.5 nM | C (A compound having a KD ratio of 0.1 or more and less than 3 is denoted as C) | C (A compound having a KD ratio of 0.1 or more and less than 3 is denoted as C) |  | 
CC[C@H](C)[C@@H]1NC(=O)[C@H](CC(C)C)N(C)C(=O)C[C@@H](C(=O)N2CCOCC2)N(C)C(=O)[C@H](C2CCCC2)N(C)C(=O)C2(CCCC2)NC(=O)[C@@H]2CCCN2C(=O)[C@H](CCc2ccc(C(F)(F)F)c(Cl)c2)NC(=O)CN(C)C(=O)[C@H](Cc2ccc(C)cc2)N(CCC(F)(F)F)C(=O)[C@@H]2CCN2C(=O)[C@H](C)N(C)C1=O [PP0091] ([NMeL]I[NMeA][Aze][X42][Sar][hPhe(3-Cl-4-CF3)]P[Ac5c][NMeGly(cPent)][NMeD]-Morpholide; lactam N-11) | 4.1 nM | B (a compound having 3 or more and less than 10 is denoted as B) | C (A compound having a KD ratio of 0.1 or more and less than 3 is denoted as C) |  | 
CCO[C@@H]1C[C@H]2C(=O)NC3(CCC3)C(=O)N(C)[C@@H](C3CCCC3)C(=O)N(C)[C@H](C(=O)N(C)C)CC(=O)N(C)[C@@H](Cc3cccc(F)c3)C(=O)N[C@@H]([C@@H](C)CC)C(=O)N(C)CC(=O)N(C)[C@H]3C/C=C\CCN(C3=O)[C@@H](Cc3ccc(C(F)(F)F)cc3)C(=O)N(C)CC(=O)N[C@@H](CCc3cc(F)c(C(F)(F)F)c(F)c3)C(=O)N2C1 [PP1126] | 7.1 nM | A (a compound having 10 or more and less than 20 is denoted as A) | A (a compound having 10 or more and less than 20 is denoted as A) |  | 
CCO[C@@H]1C[C@H]2C(=O)NC3(CCC3)C(=O)N(C)[C@@H](C3CCCC3)C(=O)N(C)[C@H](C(=O)N(C)C)CC(=O)N(C)[C@@H](CC)C(=O)N[C@@H]([C@@H](C)CC)C(=O)N(C)CC(=O)N(C)[C@H]3CCCCN(C3=O)[C@@H](Cc3ccc(C(F)(F)F)cc3)C(=O)N(C)CC(=O)N[C@@H](CCc3ccc(C(F)(F)F)c(C)c3)C(=O)N2C1 [PP0882] | 7.1 nM | B (a compound having 3 or more and less than 10 is denoted as B) | C (A compound having a KD ratio of 0.1 or more and less than 3 is denoted as C) |  | 
CCO[C@@H]1C[C@H]2C(=O)N(C)C3(CC(C)(C)C3)C(=O)N(C)[C@@H](C3CCCC3)C(=O)N(C)[C@H](C(=O)N(C)C)CC(=O)N(C)[C@H]3CCCCCCc4ccc(cc4)C[C@@H](C(=O)N(C)CC(=O)N[C@@H](CCc4ccc(C(F)(F)F)c(OC)c4)C(=O)N2C1)N1CC/C=C\C[C@@H](C1=O)N(C)C(=O)CN(C)C(=O)[C@H]([C@@H](C)CC)NC3=O [PP3090] | 1.3 nM | B (a compound having 3 or more and less than 10 is denoted as B) | A (a compound having 10 or more and less than 20 is denoted as A) |  | 
CCO[C@@H]1C[C@H]2C(=O)NC3(CCC3)C(=O)N(C)[C@@H](C3CCCC3)C(=O)N(C)[C@H](C(=O)N3CCOCC3)CC(=O)N(C)[C@@H](CC)C(=O)N[C@@H]([C@@H](C)CC)C(=O)N(C)CC(=O)N(C)[C@H]3CCCCCN(C3=O)[C@@H](Cc3ccc(C(F)(F)F)cc3)C(=O)N(C)CC(=O)N[C@@H](CCc3cc(F)c(C(F)(F)F)c(F)c3)C(=O)N2C1 [PP0678] | 35.6 nM |  |  | B (a compound having 3 or more and less than 10 is denoted as B) | B (a compound having 3 or more and less than 10 is denoted as B)
CC[C@H](C)[C@@H]1NC(=O)[C@H](CC(C)C)N(C)C(=O)C[C@@H](C(=O)N2CCOCC2)N(CC)C(=O)[C@H](C2CCCC2)N(C)C(=O)C2(CCCC2)NC(=O)[C@@H]2CCCN2C(=O)[C@H](CCc2cc(F)c(C(F)(F)F)c(F)c2)NC(=O)CN(C)C(=O)[C@H](Cc2ccc(C(F)(F)F)cc2)N2CCCC[C@@H](C2=O)N(C)C(=O)CN(C)C1=O [PP0539] | 6.3 nM |  |  | B (a compound having 3 or more and less than 10 is denoted as B) | B (a compound having 3 or more and less than 10 is denoted as B)
CCO[C@@H]1C[C@H]2C(=O)NC3(CCC3)C(=O)N(C)[C@@H](C3CCCC3)C(=O)N(C)[C@H](C(=O)N3CCOCC3)CC(=O)N(C)[C@@H](CC(C)C)C(=O)N[C@@H]([C@@H](C)CC)C(=O)N(C)CC(=O)N(C)[C@H]3C/C=C\CCN(C3=O)[C@@H](Cc3ccc(C(F)(F)F)cc3)C(=O)N(C)CC(=O)N[C@@H](CCc3ccc(C(F)(F)F)c(Cl)c3)C(=O)N2C1 [PP0825] | 26.5 nM | A (a compound having 10 or more and less than 20 is denoted as A) | A (a compound having 10 or more and less than 20 is denoted as A) |  | 

Reference: patent EP4603105A1, “PHARMACEUTICAL COMPOSITION CONTAINING CYCLIC COMPOUND HAVING SELECTIVE KRAS INHIBITORY EFFECT AGAINST HRAS AND NRAS” (CHUGAI SEIYAKU KABUSHIKI KAISHA, priority 2022, dated 2024)
